Tests used:
Format in all cases: in vivo
[1] = system: TPA-treated mouse ears (edema, ear thickness); experiment: TPA mouse ear model of inflammation - edema inhibition; conditions: TPA-treated mouse ear, at the dose tested; AFC oil n=1, data not shown
Protocol: In brief, mice were sedated and their ears were treated with 1.2 μg/20 uL TPA (i.e., tetradecanoylphorbol-13-acetate). After 5 minutes, we dosed these TPA-treated ears with a single 8 μg/20 μL dose, a 2 μg/20 μL dose, or both doses, of provided complexes. After 24 hours, the mice were sacrificed and edema was measured by taking micrometer readings of each ear. […] These values were corrected for the thickness of normal, non TPA-treated mouse ears of littermate controls.

[2] = system: MPO (myeloperoxidase), neutrophil marker; experiment: TPA mouse ear model of inflammation - MPO inhibition (dermal neutrophil infiltration); conditions: for % MPO Inhibition in the Mouse Ear Inflammation Assay (4% concentration): topical, 24 hours
Protocol: Briefly, we homogenized 6mm biopsy punches taken from both compound-treated ears as well as TPA-treated and non-treated control groups. We quantitated the levels of MPO by a colorimetric reaction that was measured spectrophotometrically. The percent inhibition of neutrophil infiltration by each complex was determined by comparing the average MPO levels in the presence and absence of these compounds. The calculation for percent inhibition of MPO was determined similar to that as described for calculating the percent edema inhibition, see the Edema Inhibition protocol, supra.

[3] = system: TPA-treated mouse ears (edema, ear thickness); experiment: TPA mouse ear model of inflammation - edema inhibition; conditions: topical, 24 hours
[4] = system: MPO activity (neutrophil infiltration) in P. acnes-injected ear; experiment: P. acnes-induced mouse ear model of inflammation - MPO endpoint
Protocol: The methods for a model of P. acnes-inflammation are described elsewhere (Nakatsuji et al., J Invest Dermatol, 2008, 128: 2451-2457).
The protocol for inducing inflammation using P. acnes bacterial challenge on the mouse ear was slightly modified from the method described previously (Natatsuji et al., 2008). Briefly, Swiss Webster (ICR, 6-8 weeks old) mouse ears were injected with living P. acnes culture intradermally. An amount of 20 μl aliquots of living P. acnes (ATCC 6919, 3×10^6 CFU) suspended in PBS was intradermally injected in the central portion of the ear. As a control, 20 μl of PBS was injected into control animals.
To assay for inhibition of dermal neutrophil infiltration by AFC complexes, a standard method was used (see Bradley et al., J Invest Dermatol, 1982,78: 206-209; Young et al., J Invest Dermatol, 1983, 80: 48-52; De Young et al, Agents Actions, 1989, 26: 335-41; and Rao et al., Inflammation, 1993, 17: 723-41). Briefly, 6mm biopsy punches taken from both compound-treated ears as well as non-treated control ears were homogenized in 400 μl of 0.5% hexadecyltrimethylammonium bromide in 50 mM potassium phosphate buffer (pH 6.0) using the Fast Prep 24 (MP Biomedicals, Solon, Ohio). Supernatants were assayed for MPO activity using a model EL 340 96-well plate reader (BioTek Instruments, Winooski, Vt.). The percent inhibition of neutrophil infiltration by each AFC complex was determined by comparing the average MPO levels in the presence and absence of these compounds. The percent inhibition of MPO was determined by taking the average MPO activity of compound-treated ears and dividing it by the average MPO activity of 12 ears that only received the P. acnes challenge and subtracting that value from 100%. These values were corrected for the MPO activity of normal, non P. acnes-treated mouse ears of littermate controls. Summary of MPO activity ranges determined from an MPO activity assay for dexamethasone (administered at a dose of 1.6 mg/20 μL), clobetasol (administered at a dose of 0.1 mg/20 μL), salicylic acid (administered at a dose of 0.4 mg/20 μL), AFC (administered at a dose of 0.4 mg/20 μL), AFC-Strontium complex (administered at a dose of 0.4 mg/20 μL) and SFC-disodium are presented in Table 4. “+” indicates a range of 0-20%, “++” indicates a range of 20-40%, and “+++” indicates >40% inhibition.

[5] = system: TPA-treated mouse ears (erythema, Δa* redness); experiment: TPA mouse ear model of inflammation - erythema inhibition; conditions: topical, 24 hours
Protocol: The protocol for measuring erythema inhibition by provided complexes was developed in-house by utilizing the CR-400 chroma meter from Konica Minolta (2). This instrument was used to measure the Δa*redness value from 6 mm biopsy punches taken 24 hours post TPA/compound treatment as described in the edema inhibition section above. […] These values were corrected for the Δa* value of non TPA-treated mouse ears of littermate controls.

| Compound | % MPO Inhibition in the Mouse Ear Inflammation Assay (4% concentration) ([2]; TPA-treated mouse ear) | % Edema Inhibition in the Mouse Ear Inflammation Assay (4% concentration) [3] | % Erythema Inhibition in the Mouse Ear Inflammation Assay (4% concentration) [5] | also measured |
| --- | --- | --- | --- | --- |
| CC(=O)N[C@@H](CSC/C=C(\C)CC/C=C(\C)CCC=C(C)C)C(=O)O [AFC-Glucosamine complex, Glucosamine (R)-2-acetamido-3-((2E,6E)-3,7,11-trimethyldodeca-2,6,10-trienylthio)propanoate] | ++ (“++” indicates a range of 40-80%) | +++ (“+++” indicates >50% inhibition of edema) | – | inhibition of edema [1]: 70.84±5.25%; inhibition of neutrophil infiltration ([2]; TPA-treated mouse ear, at the dose tested, AFC oil n=1, data not shown): 73.15±6.0% |
| C[C@@H]1C[C@H]2[C@@H]3CCC4=CC(=O)C=C[C@]4(C)[C@@]3(F)[C@@H](O)C[C@]2(C)[C@@]1(O)C(=O)CO [Dexamethasone] | – | – | – | MPO % Inhibition ([4]; dose of 1.6 mg/20 μL): +++ (“+++” indicates >40% inhibition) |
| CC(C)=CCC/C(C)=C/CC/C(C)=C/CSC[C@H](NC(=O)CCC(=O)O)C(=O)O [SFC, N-succinyl-S-farnesyl-L-cysteine] | +++ (“+++” indicates >80% inhibition of MPO) | +++ (“+++” indicates >50% inhibition of edema) | + (“+”indicates a range of 0-20%) | – |
| CC(C)=CCC/C(C)=C/CC/C(C)=C/CSC[C@H](NC(=O)CCC(=O)[O-])C(=O)[O-].[Na+].[Na+] [SFC-disodium] | ++ (“++” indicates a range of 40-80%) | ++ (“++” indicates a range of 20-50%) | ++ (“++” indicates a range of 20-40%) | MPO % Inhibition ([4]; dose not given): +++ (“+++” indicates >40% inhibition) |
| CC(C)=CCC/C(C)=C/CC/C(C)=C/CSC[C@H](NC(=O)CCC(=O)[O-])C(=O)O.[Na+] [SFC-monosodium] | ++ (“++” indicates a range of 40-80%) | ++ (“++” indicates a range of 20-50%) | ++ (“++” indicates a range of 20-40%) | – |
| O=C(O)c1ccccc1O [Salicylic Acid] | – | – | – | MPO % Inhibition ([4]; dose of 0.4 mg/20 μL): ++ (“++” indicates a range of 20-40%) |
| [Cl-].[Cl-].[Sr+2] [Strontium chloride, reference compound] | – | + (“+”indicates a range of 0-20%) | + (“+”indicates a range of 0-20%) | biological activity compared with AFC-strontium complex (FIG. 1) ([2]; FIG. 1, follows the MPO discussion of b517, assay not named): no significant activity |
| Calcium 4-((R)-1-carboxy-2-((2E,6E)-3,7,11-trimethyldodeca-2,6,10-trienylthio)ethylamino)-4-oxobutanoate [SFC-calcium complex] | ++ (“++” indicates a range of 40-80%) | +++ (“+++” indicates >50% inhibition of edema) | +++ (“+++” indicates >40% inhibition of erythema) | – |
| Strontium (R)-2-amino-3-((2E,6E)-3,7,11-trimethyldodeca-2,6,10-trienylthio)propanoate [Farnesyl Cysteine-Strontium complex] | – | ++ (“++” indicates a range of 20-50%) | ++ (“++” indicates a range of 20-40%) | – |
